Measured values published in patent US20250333482A1, “MODULATORS OF MESOTHELIAL ECM MOVEMENT” (Helmholtz Zentrum München Deutsches Forschungszentrum Für …, priority 2021, published 2025).

How the values were obtained:
TGFβ signaling = experiment: Ex vivo mouse lung biopsies treated with granulocytes, then TGFβ inhibitors; assay type: cell-based; settings: for matrix invasion: in the presence of granulocytes; for phosphorylated SMAD (pSMAD): mouse lung biopsies treated with granulocytes
Protocol: (§1) C57BL/6J male mice (6-8 weeks age) used to study the movement of lung matrix. After organ withdrawal 4 mm biopsy punches of murine lungs were generated. To obtain ectopic labeling of matrix, the inventors generated a labelling solution by mixing NHS-ester 1:1 with 100 mM pH 9.0 sodium bicarbonate buffer. Sterile Whatman filter paper (Sigma Aldrich) biopsy punches where soaked in NHS-labelling solution, and locally placed on the lung biopsy surface. After one minute, the labelling punch was removed. Mouse lung biopsies were cocultured in the RPMI medium (10% FBS with 1% Pen/Strep and 0.1% AmB) consist of different sub types of immune cells (0.1×10^6 cells/biopsy) isolated from the healthy and idiopathic pulmonary fibrosis human donors. Mouse lung biopsies with immune cells were then cultured in the ex vivo condition provided with 5% C02 at 37° C.
(§2) After 48 hours, mouse lung biopsies were fixed with the 4% formalin and incubated for overnight at 4° C. followed by PBS wash. Human lung tissues where obtained, labelled, and cultivated for 24 hours as described above.
(§3) Matrix invasion was calculated using histological sections, quantifying FITC signal per area via ImageJ (1.52i). Quantification of immunolabeling was performed in randomly distributed ROIs/FOVs. Multiphoton images were analyzed using Fiji plugins Fraklac V. 2.5 and LocalThickness_V-4.0.2.
The inventors sought to characterize the signaling pathways by which immune cells trigger matrix invasion and fibrosis and we naturally sought to investigate the known chief proponent, TGFβ. They wondered whether the fibrotic cascade of immune cells might start with mesothelial TGFβ expression. Mouse lung biopsies were treated with granulocytes, followed by administering two TGFβ inhibitors, Repsox and LDN-212854, in separate experiments (FIG. 2A). Inhibition of TGFβ signaling in both chemical assays decreased phosphorylated SMAD (pSMAD), which is the major mediator of TGFβ-induced signaling. Furthermore, inhibiting TGFβ reduced matrix invasion, even in the presence of granulocytes. Moreover, adding granulocytes alone led to increased phosphorylated SMAD signaling in mesothelium. These findings indicate granulocytes trigger TGFβ expression in mesothelium to initiate matrix accumulation and irrigation.

C57BL/6J mice = experiment: Pharmacologic treatment regime in the bleomycin-induced lung fibrosis model; assay type: in vivo, mouse; settings: for pleural matrix pools: after bleomycin-induced injury
Protocol: The inventors generated a labelling solution by mixing 5 μl NHS-ester (25 mg/ml) with 5 μl of 100 mM pH 9.0 sodium bicarbonate buffer, combining with 40 μl PBS to a total volume of 50 μl. Labelling solution was applied intrapleurally (for lung and/or heart fibrosis model) under isoflurane anesthesia with a 30 G cannula. Abdominal labeling was performed by injecting 100 μl of labelling solution intra-peritoneal (for liver and/or kidney fibrosis model).
The oropharyngeal administration of bleomycin for the induction of pulmonary fibrosis is carried out in an antagonistic anesthesia in C57BL/6J mice of both sexes (6-8 weeks age). After the toe-pinch reflex is absent, the mouse is placed on the incisors of the upper jaw and thus kept in an upright position. The tongue is carefully fixed with is held to the side with tweezers and the nose of the animal is covered with tweezers. By keeping the nose closed, the mouse is forced to breathe through the mouth. With the help of a pipette, bleomycin is dissolved in a dosage of 2 units/kg KGW in 80 μl PBS carefully into the throat. As soon as the animal has inhaled the solution, it will be
Hot plate transferred (duration approx. 30 to 60 seconds). After antagonization animals were housed for 14 days. Nintedanib was added 1 hour before bleomycin installation and every other day intra peritoneal 10 μM.
Pirfenidone (0.07 mg/kg), Nintedanib (0.21 mg/kg) and Cathepsin Inhibitor B (0.15 mg/kg) were injected 1 hour before bleomycin installation and every other day intra peritoneal in a volume of 100 μl in physiological saline solution.
as §3

[1] = test system: fibrotic human lung tissue; experiment: Ex vivo matrix flow in fibrotic human lung tissue; assay type: cell-based
Protocol: All tissues (PFA, ST) used in this study were obtained with properly informed consent of patients. All experimental procedures were performed in accordance with the Ethics committee vote number/Study protocol number: 333-10 Parent Proposal number: BA34/2018.
as §1, §2

[2] = bleomycin, intra peritoneal 1 hour before and every other day

Compound | matrix invasion (TGFβ signaling) | phosphorylated SMAD (pSMAD) (TGFβ signaling) | pleural matrix pools (C57BL/6J mice) | bleomycin-induced mortality (C57BL/6J mice; [2]) | matrix invasion into lungs (matrix movements) (C57BL/6J mice; [2]) | survival rates of lung injured animals (C57BL/6J mice; [2]) | fluid matrix flows [1] | fibrosis development (C57BL/6J mice; [2]) | bleomycin-induced mortality (C57BL/6J mice; bleomycin, intra peritoneal 1 hour before and every other day, listed as Cathepsin B inhibitor)
c1cc(-c2cnn3cc(-c4ccc(N5CCNCC5)cc4)cnc23)c2cccnc2c1 [LDN-212854] | reduced | decreased |  |  |  |  |  |  | 
Cc1cccc(-c2[nH]ncc2-c2ccc3ncccc3n2)n1 [Repsox] | reduced | decreased |  |  |  |  |  |  | 
COC(=O)c1ccc2c(c1)NC(=O)/C2=C(\Nc1ccc(N(C)C(=O)CN2CCN(C)CC2)cc1)c1ccccc1 [Nintedanib] |  |  | rescue | prevent | inhibiting matrix movements | comparable |  |  | 
CC(NC(=O)[C@H](Cc1ccccc1)NC(=O)OCc1ccccc1)C(=O)CF (stereo partly shown) [Z-FA-FMK] |  |  | rescue | abrogated | completely prevented | 100% | blocks | completely prevented | prevent
Cc1ccc(=O)n(-c2ccccc2)c1 [Pirfenidone] |  |  | rescue | prevent | inhibiting matrix movements | comparable |  |  | 
